From patent US20240279227A1, “FUSED HETEROCYCLIC DERIVATIVES” (Janssen Sciences Ireland Unlimited Company, priority 2021, published 2024)

What was measured:
HepG2 or HepG2.117 cells = assay: Cytotoxicity, ATPlite Luminescence Assay; type: cell-based, human; details: 3-days incubation unless marked with *, ATPlite viability
Summary of the method: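 Viability after compound treatment is read as ATP luminescence. Exposure lasts 3 or 4 days.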

[1] = Human liver microsome stability; type: in vitro ADME; details: human, pooled human liver microsomes, pH 7.4, pooled human liver microsomes 0.5 mg/mL, 1 μM compound, NADPH 1 mM, pH 7.4, 37° C., 0-60 min; read-out: HLM Metabolism t1/2
Summary of the method: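 Pooled human liver microsomes (0.5 mg/mL) incubated at 37 °C with 1 μM compound in 0.1 M phosphate pH 7.4, 1 mM MgCl2; 1 mM NADPH starts reaction. Samples quenched in acetonitrile at 0–60 min, analysed by LC-MS against internal standard; half-life from slope of ln peak-area ratio versus time.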

HBV = assay: Anti-HBV activity in HepG2.117 cell line (intracellular HBV DNA, real-time PCR); type: cell-based, hepatitis B virus; details: Hepatitis B virus, HepG2.117, 72 h, HepG2.117 cells, HBV replication induced, 3 days of treatment, intracellular HBV DNA by real-time PCR
Summary of the method: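 HepG2.117 cells (Tet-off, doxycycline-free HBV replication) induced for HBV replication, then exposed to serially diluted compound for 3 days. Intracellular HBV DNA quantified by real-time PCR with HBV-specific primers and probe.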

CNC(=O)[C@@H]1CN(C(C)c2ccc(-n3nnc(C)n3)cc2)C(=O)c2c3c(nn21)C[C@@H](C)N(C(=O)c1ccc(Cl)c(Cl)c1)C3 (single isomer, unassigned) [Compound 30A, (3R,7S)-2-(3,4-Dichlorobenzoyl)-N,3-dimethyl-9-((R*)-1-(4-(5-methyl-2H-tetrazol-2-yl)phenyl)ethyl)-10-oxo-1,2,3,4,7,8,9,10-octahydropyrido[4′,3′:3,4]pyrazolo[1,5-a]pyrazine-7-carboxamide]
CC50 (HepG2 or HepG2.117 cells): > 50 µM | half-life at 1 μM [1]: > 3 h | EC50 (HBV): 0.016 µM
